Measurements: patent US20130296370A1, “COMPOSITION COMPRISING A PHOTOACTIVATABLE LARVICIDE” (UNIVERSITA DEGLI STUDI DI PADOVA, priority 2010, published 2013)

Tested on: 3rd-4th instar Ae. aegypti larvae
Experiment: Larvicidal efficacy of C14 porphyrin (LC50)
Format: in vivo
Conditions: 6 mg PFP
Protocol: Irradiation of mosquito larvae were performed by employing full spectrum visible light (400-800 nm) at a fluence rate of 1.0 to 4.0 mW/cm^2 using low-pressure mercury discharge fluorescent tubes TL-D Standard Colours (TL-D 58W/33-640 1SL, PHILIPS, EC). The intensity of the incident radiation was measured by an ILT1400A radiometer/photometer, equipped with a SED623/HNK15 multi-junction thermopile detector (International Light Technologies Inc., MA, USA).
All the experiments were carried out in a climatic chamber at 28±2° C. with a regulated photoperiod of 12 hours. Transparent plastic trays, containing 500 ml C14 solutions or spring water were employed. Typically, 5±1 days old, 3rd-early 4th instar Aedes aegypti larvae were used. All the experiments were replicated three times.
Mortality data were analyzed by ANOVA and LSD post-hoc tests using SPSS v. 11.0 (SPSS Inc.). LC50 values and relevant statistics were obtained by nonlinear regression of mortality data, using OriginPro v. 7.5 (OriginLab Corp.).
Trays containing C14 porphyrin solutions at 7 increasing concentrations (range 0.03-4.3 μM), or spring water as a control, were provided with 6 mg of PFP each (wherein PFP means powdered food pellet (PFP) with final particle diameter of 5-500 μm diameter obtained by crushing a standard food pellet for laboratory rodents, namely 4RF18 GLP (Mucedola Srl, Italy) using an electric blender and then sieving at mesh diameter 500 μm) and then incubated in the dark for 48 hours. Batches of 100 larvae, fasted for the previous 24 hours, were introduced into the trays at 8.00 pm (beginning of the 12 hour-long dark period in the climatic chamber). Larval mortality was evaluated on the next day at 9 am (after 1 hour irradiation), 2 pm (6 hours irradiation) and 8 pm (12 hours irradiation). An additional mortality evaluation was performed on the following day at 8.00 am, after a further overnight incubation. Larvae not moving or not showing a normally vigorous escaping response at probing were defined as dead or dying, respectively, and counted together. Pupae occasionally formed during the experiment, which never exceeded 10% of the total number of larvae, were discarded and excluded from the evaluation.
C14 solutions were incubated with 6 mg PFP at 28±2° C. in the dark for 48 hours. Larvae (3rd-4th instar, n=100, 3 replicates) were introduced 12 hours before the start of the irradiation (fluence rate: 1.0-4.0 mW/cm^2).

CCCCCCCCCCCCCC[n+]1ccc(-c2c3nc(c(-c4cc[n+](C)cc4)c4ccc([nH]4)c(-c4cc[n+](C)cc4)c4nc(c(-c5cc[n+](C)cc5)c5ccc2[nH]5)C=C4)C=C3)cc1.Cc1ccc(S(=O)(=O)[O-])cc1.Cc1ccc(S(=O)(=O)[O-])cc1.Cc1ccc(S(=O)(=O)[O-])cc1.Cc1ccc(S(=O)(=O)[O-])cc1 [C14, meso-tri(N-methyl-pyridyl), mono(N-tetradecyl-pyridyl)porphine]
LC50 (12 light + 12 dark hours): 110 nM | LC50 (1 hour of irradiation, 1.0-4.0 mW/cm^2): 460 nM | LC50 (6 hours of irradiation, 1.0-4.0 mW/cm^2): 250 nM | LC50 (12 hours of irradiation, 1.0-4.0 mW/cm^2): 220 nM
